# Reference: patent publication US8192962B2, “Processes for detecting toxic substances” (Daikin Industries, Ltd., priority 2001, dated 2012)
# System: Genes belonging to other category
# Test: DNA chip mRNA expression in yeast, genes belonging to other category (Table 9)
# Format: cell-based, Saccharomyces cerevisiae S288C
# In short: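 Measured as treated-to-untreated fluorescence ratio on a full-genome yeast DNA chip. Cells (S288C, YPD, 25° C.) were exposed in log phase for two hours to one chemical, dosed to curb growth without killing.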
compound,measurement,setting,value
"C=CC=O [(14), acrolein]",The level of expressed mRNA in the presence of chemical substance/The level of expressed mRNA in the absence of chemical substance,yeast gene YDR432W,0.5
same,The level of expressed mRNA in the presence of chemical substance/The level of expressed mRNA in the absence of chemical substance,yeast gene YDR481C,0.9
same,The level of expressed mRNA in the presence of chemical substance/The level of expressed mRNA in the absence of chemical substance,yeast gene YDR510W,1.9
same,The level of expressed mRNA in the presence of chemical substance/The level of expressed mRNA in the absence of chemical substance,yeast gene YEL042W,0.6
same,The level of expressed mRNA in the presence of chemical substance/The level of expressed mRNA in the absence of chemical substance,yeast gene YEL066W,1.9
same,The level of expressed mRNA in the presence of chemical substance/The level of expressed mRNA in the absence of chemical substance,yeast gene YER009W,1.6
same,The level of expressed mRNA in the presence of chemical substance/The level of expressed mRNA in the absence of chemical substance,yeast gene YER021W,1.3
same,The level of expressed mRNA in the presence of chemical substance/The level of expressed mRNA in the absence of chemical substance,yeast gene YER025W,2.1
same,The level of expressed mRNA in the presence of chemical substance/The level of expressed mRNA in the absence of chemical substance,yeast gene YER039C,1.2
same,The level of expressed mRNA in the presence of chemical substance/The level of expressed mRNA in the absence of chemical substance,yeast gene YER072W,1.5
same,The level of expressed mRNA in the presence of chemical substance/The level of expressed mRNA in the absence of chemical substance,yeast gene YER107C,1.1
same,The level of expressed mRNA in the presence of chemical substance/The level of expressed mRNA in the absence of chemical substance,yeast gene YER130C,0.8
same,The level of expressed mRNA in the presence of chemical substance/The level of expressed mRNA in the absence of chemical substance,yeast gene YER177W,0.9
same,The level of expressed mRNA in the presence of chemical substance/The level of expressed mRNA in the absence of chemical substance,yeast gene YFL022C,3.1
same,The level of expressed mRNA in the presence of chemical substance/The level of expressed mRNA in the absence of chemical substance,yeast gene YFL028C,1.6
same,The level of expressed mRNA in the presence of chemical substance/The level of expressed mRNA in the absence of chemical substance,yeast gene YFL043C,1.5
same,The level of expressed mRNA in the presence of chemical substance/The level of expressed mRNA in the absence of chemical substance,yeast gene YFR014C,1.0
same,The level of expressed mRNA in the presence of chemical substance/The level of expressed mRNA in the absence of chemical substance,yeast gene YFR050C,1.6
same,The level of expressed mRNA in the presence of chemical substance/The level of expressed mRNA in the absence of chemical substance,yeast gene YGL094C,0.9
same,The level of expressed mRNA in the presence of chemical substance/The level of expressed mRNA in the absence of chemical substance,yeast gene YGL150C,1.0
same,The level of expressed mRNA in the presence of chemical substance/The level of expressed mRNA in the absence of chemical substance,yeast gene YGL158W,2.3
same,The level of expressed mRNA in the presence of chemical substance/The level of expressed mRNA in the absence of chemical substance,yeast gene YGL185C,1.5
same,The level of expressed mRNA in the presence of chemical substance/The level of expressed mRNA in the absence of chemical substance,yeast gene YGL229C,1.0
same,The level of expressed mRNA in the presence of chemical substance/The level of expressed mRNA in the absence of chemical substance,yeast gene YGR036C,1.0
same,The level of expressed mRNA in the presence of chemical substance/The level of expressed mRNA in the absence of chemical substance,yeast gene YGR120C,1.0
same,The level of expressed mRNA in the presence of chemical substance/The level of expressed mRNA in the absence of chemical substance,yeast gene YGR131W,2.0
same,The level of expressed mRNA in the presence of chemical substance/The level of expressed mRNA in the absence of chemical substance,yeast gene YGR136W,1.1
same,The level of expressed mRNA in the presence of chemical substance/The level of expressed mRNA in the absence of chemical substance,yeast gene YGR189C,0.9
same,The level of expressed mRNA in the presence of chemical substance/The level of expressed mRNA in the absence of chemical substance,yeast gene YGR213C,1.0
same,The level of expressed mRNA in the presence of chemical substance/The level of expressed mRNA in the absence of chemical substance,yeast gene YGR232W,2.1
same,The level of expressed mRNA in the presence of chemical substance/The level of expressed mRNA in the absence of chemical substance,yeast gene YGR239C,1.4
same,The level of expressed mRNA in the presence of chemical substance/The level of expressed mRNA in the absence of chemical substance,yeast gene YGR257C,0.9
same,The level of expressed mRNA in the presence of chemical substance/The level of expressed mRNA in the absence of chemical substance,yeast gene YHR004C,0.8
same,The level of expressed mRNA in the presence of chemical substance/The level of expressed mRNA in the absence of chemical substance,yeast gene YHR071W,1.6
same,The level of expressed mRNA in the presence of chemical substance/The level of expressed mRNA in the absence of chemical substance,yeast gene YHR109W,1.5
same,The level of expressed mRNA in the presence of chemical substance/The level of expressed mRNA in the absence of chemical substance,yeast gene YHR139C,2.5
same,The level of expressed mRNA in the presence of chemical substance/The level of expressed mRNA in the absence of chemical substance,yeast gene YHR142W,1.2
same,The level of expressed mRNA in the presence of chemical substance/The level of expressed mRNA in the absence of chemical substance,yeast gene YHR161C,1.0
same,The level of expressed mRNA in the presence of chemical substance/The level of expressed mRNA in the absence of chemical substance,yeast gene YHR163W,1.5
same,The level of expressed mRNA in the presence of chemical substance/The level of expressed mRNA in the absence of chemical substance,yeast gene YHR169W,1.1
same,The level of expressed mRNA in the presence of chemical substance/The level of expressed mRNA in the absence of chemical substance,yeast gene YHR171W,1.0
same,The level of expressed mRNA in the presence of chemical substance/The level of expressed mRNA in the absence of chemical substance,yeast gene YIL010W,1.7
same,The level of expressed mRNA in the presence of chemical substance/The level of expressed mRNA in the absence of chemical substance,yeast gene YIL034C,1.1
same,The level of expressed mRNA in the presence of chemical substance/The level of expressed mRNA in the absence of chemical substance,yeast gene YIL076W,1.4
same,The level of expressed mRNA in the presence of chemical substance/The level of expressed mRNA in the absence of chemical substance,yeast gene YIL123W,0.3
same,The level of expressed mRNA in the presence of chemical substance/The level of expressed mRNA in the absence of chemical substance,yeast gene YIL140W,0.9
same,The level of expressed mRNA in the presence of chemical substance/The level of expressed mRNA in the absence of chemical substance,yeast gene YIL142W,1.0
